In US10183952B2, “Thienopyrroles as histone demethylase inhibitors” (ISTITUTO EUROPEO DI ONCOLOGIA S.R.L., priority 2014, dated 2019):
pIC50: −log10 of the molar value. Where a name gives a salt, the structure may show the parent alone.

Legend:
[1] = tested on: human leukemia MV4-11 cells; assay: Cell growth, CellTiter-Fluor Cell Viability Assay, MV4-11; format: cell-based; settings: 48 h incubation, read-out: IC50 against human leukemia MV4-11 cells
Excerpt: (§1) The CellTiter-Fluor™ Cell Viability Assay measures the conserved and constitutive protease activity within live cells and therefore acts as a marker for cell viability.
(§2) CellTiter-Flor® (Promega) is as a nonlytic, single-reagent-addition fluorescence assay that measures the relative number of living cells in a culture population after experimental manipulation. The CellTiter-Fluor™ Cell Viability Assay measures the conserved and constitutive protease activity within live cells and therefore acts as a marker for cell viability.
(§3) Human leukemia MV4-11 cells, (obtained from the Deutsche Sammlung von Mikroorganismen und Zellkulturen, ACC 102) or NB4 cells, (obtained from the Deutsche Sammlung von Mikroorganismen und Zellkulturen) in exponential growth, were incubated for 48 h with different concentrations of the inhibitors. After 48 h a volume of CellTiter-Fluor® Reagent equal to one fifth of volume of cell culture medium was added. The content was mixed and incubates for at least 90 min at 37° C. degree to obtain a stable signal. The fluorescence was recorded using an excitation wavelength of 360 nm and an emission at 535 nm. The IC50 was calculated using GraphPad Software.

human leukemia NB4 cells = assay: Cell growth, CellTiter-Fluor Cell Viability Assay, NB4; format: cell-based; settings: NB-4, 48 h incubation, read-out: IC50 against human leukemia NB4 cells
Excerpt: as §1, §2, §3

[2] = molecular target: human recombinant KDM1A/CoREST protein (Homo sapiens, UniProt O60341); assay: Assay of enzyme inhibition of KDM1A (LSD1), TR-FRET
Experimental: The intensity of the light emission is proportional to the level of biotinylated reaction product. The complex of human recombinant KDM1A/CoREST protein was produced in E. coli as separate proteins and co-purified as previously described.
Demethylase reaction was started by the addition of 50 nM histone H3K4 monomethylated.
The resulting mixture was incubated in the dark for 1 h at RT.

Structure (SMILES) | pIC50 [1] | pIC50 (human leukemia NB4 cells) | pIC50 [2]
Cn1c(C(=O)Nc2ccccc2COc2ccc(OC3CCCNCC3)cc2)cc2sccc21 (centres unmarked) [Example 7, N-[2-[[4-(azepan-4-yloxy)phenoxy]methyl]phenyl]-4-methyl-thieno[3,2-b]pyrrole-5-carboxamide hydrochloride] | > 5.00 | > 4.70 | > 5.00
Cn1c(C(=O)Nc2cccc(OCc3ccncc3)c2)cc2sccc21 [Example 21, 4-methyl-N-[3-(4-pyridylmethoxy)phenyl]thieno[3,2-b]pyrrole-5-carboxamide] | > 5.00 | > 4.70 | > 5.00
Cn1c(C(=O)Nc2ccccc2COc2ccc(OC[C@@H]3CCNC3)cc2)cc2sccc21 [Example 4, 4-methyl-N-[2-[[4-[[(3R)-pyrrolidin-3-yl]methoxy]phenoxy]methyl]phenyl]thieno[3,2-b]pyrrole-5-carboxamide] | > 5.00 | > 4.70 | > 5.00
Cn1c(C(=O)Nc2cccc(CCc3ccc(OC4CCNCC4)cc3)c2)cc2sccc21 [Example 62, 4-Methyl-N-[3-[2-[4-(4-piperidyloxy)phenyl]ethyl]phenyl]thieno[3,2-b]pyrrole-5-carboxamide hydrochloride] | > 5.00 | > 4.70 | > 5.00
Cn1c(C(=O)Nc2ccccc2COc2ccc(O[C@H]3CC[C@H](N)CC3)cc2)cc2sccc21 [Example 14, N-[2-[[4-(trans-4-aminocyclohexoxy)phenoxy]methyl]phenyl]-4-methyl-thieno[3,2-b]pyrrole-5-carboxamide] | > 5.00 | > 4.70 | > 5.00
Cn1c(C(=O)Nc2ccccc2CNc2ccc(OC3CCNCC3)cc2)cc2sccc21 [Example 63, 4-Methyl-N-[2-[[4-(4-piperidyloxy)anilino]methyl]phenyl]thieno[3,2-b]pyrrole-5-carboxamide dihydrochloride] | > 5.00 | > 4.70 | > 5.00
Cn1c(C(=O)Nc2cccc(COc3ccc(O[C@H]4CC[C@H](N)CC4)cc3)c2)cc2sccc21 [Example 29, N-[3-[[4-(trans-4-aminocyclohexoxy)phenoxy]methyl]phenyl]-4-methyl-thieno[3,2-b]pyrrole-5-carboxamide] | – | – | > 5.00
CNCCCOc1ccc(OCc2ccccc2NC(=O)c2cc3sccc3n2C)cc1 [Example 31, 4-methyl-N-[2-[[4-(3-methylaminopropoxy)phenoxy]methyl]phenyl]thieno[3,2-b]pyrrole-5-carboxamide hydrochloride] | – | – | > 5.00
CCn1c(C(=O)Nc2ccccc2COc2ccc(OC3CCNCC3)cc2)cc2ccsc21 [Example 66, 6-Ethyl-N-[2-[[4-(4-piperidyloxy)phenoxy]methyl]phenyl]thieno[2,3-b]pyrrole-5-carboxamide hydrochloride] | – | – | > 5.00
Cn1c(C(=O)Nc2ccccc2COc2cccc(OC3CCNCC3)c2)cc2ccsc21 [Example 64, 6-Methyl-N-[2-[[3-(4-piperidyloxy)phenoxy]methyl]phenyl]thieno[2,3-b]pyrrole-5-carboxamide] | – | – | > 5.00
COCc1cccc(NC(=O)c2cc3ccsc3n2C)c1 [Example 48, N-[3-(methoxymethyl)phenyl]-6-methyl-thieno[2,3-b]pyrrole-5-carboxamide] | – | – | > 4.60
CN1CCC(Oc2ccc(OCc3ccc(NC(=O)c4cc5sccc5n4C)cc3)cc2)CC1 [Example 23, 4-methyl-N-[4-[[4-[(1-methyl-4-piperidyl)oxy]phenoxy]methyl]phenyl]thieno[3,2-b]pyrrole-5-carboxamide] | – | – | > 5.00
Cn1c(C(=O)Nc2ccccc2COc2ccc(OCC3CCNC3)cc2)cc2ccsc21 (centres unmarked) [Example 68, 6-Methyl-N-[2-[[4-(pyrrolidin-3-ylmethoxy)phenoxy]methyl]phenyl]thieno[2,3-b]pyrrole-5-carboxamide hydrochloride] | – | – | > 5.00
Cn1c(C(=O)Nc2cccc(COc3ccc(O[C@H]4CC[C@@H](N)CC4)cc3)c2)cc2sccc21 [Example 34, N-[3-[[4-(cis-4-aminocyclohexoxy)phenoxy]methyl]phenyl]-4-methyl-thieno[3,2-b]pyrrole-5-carboxamide] | – | – | > 5.00
Cn1c(C(=O)Nc2cccc(COc3ccncc3)c2)cc2sccc21 [Example 22, 4-methyl-N-[3-(4-pyridyloxymethyl)phenyl]thieno[3,2-b]pyrrole-5-carboxamide] | – | – | > 5.00
Cn1c(C(=O)Nc2ccccc2COc2ccc(O[C@@H]3C[C@H]4CC[C@@H](C3)N4)cc2)cc2sccc21 [Example 24, N-[2-[[4-[[(1S,5R)-8-azabicyclo[3.2.1]octan-3-yl]oxy]phenoxy]methyl]phenyl]-4-methyl-thieno[3,2-b]pyrrole-5-carboxamide] | – | – | > 5.00
Cn1c(C(=O)Nc2cccc(COc3cccc(OC4CCNCC4)c3)c2)cc2sccc21 [Example 58, 4-Methyl-N-[3-[[3-(4-piperidyloxy)phenoxy]methyl]phenyl]thieno[3,2-b]pyrrole-5-carboxamide hydrochloride] | – | – | > 5.00
Cn1c(C(=O)Nc2cccc(COc3ccc(OCC4CNC4)cc3)c2)cc2sccc21 [Example 30, N-[3-[[4-(azetidin-3-ylmethoxy)phenoxy]methyl]phenyl]-4-methyl-thieno[3,2-b]pyrrole-5-carboxamide] | – | – | > 5.00
CSCc1cccc(NC(=O)c2cc3sccc3n2C)c1 [Example 46, 4-methyl-N-[3-(methylsulfanylmethyl)phenyl]thieno[3,2-b]pyrrole-5-carboxamide] | – | – | > 5.00
Cn1c(C(=O)Nc2ccccc2COc2ccc(OC3CCNCC3)cc2)cc2ccsc21 [Example 67, 6-Methyl-N-[2-[[4-(4-piperidyloxy)phenoxy]methyl]phenyl]thieno[2,3-b]pyrrole-5-carboxamide] | – | – | > 5.00
Cn1c(C(=O)Nc2ccccc2COc2ccc(OCC3CNC3)cc2)cc2sccc21 [Example 40, N-[2-[[4-(azetidin-3-ylmethoxy)phenoxy]methyl]phenyl]-4-methyl-thieno[3,2-b]pyrrole-5-carboxamide; 2,2,2-trifluoroacetic acid] | – | – | > 5.00

Now from value to compound:

pIC50 [1] | pIC50 (human leukemia NB4 cells) | pIC50 [2] | Structure (SMILES)
> 5.00 | > 4.70 | > 5.00 | Cn1c(C(=O)Nc2ccccc2CCc2ccc(OC3CCNCC3)cc2)cc2sccc21 [Example 61, 4-Methyl-N-[2-[2-[4-(4-piperidyloxy)phenyl]ethyl]phenyl]thieno[3,2-b]pyrrole-5-carboxamide hydrochloride]
> 5.00 | > 4.70 | > 5.00 | CCn1c(C(=O)Nc2ccccc2COc2ccc(OC3CCNCC3)cc2)cc2sccc21 [Example 8, 4-ethyl-N-[2-[[4-(4-piperidyloxy)phenoxy]methyl]phenyl]thieno[3,2-b]pyrrole-5-carboxamide]
> 5.00 | > 4.70 | > 5.00 | COCc1cccc(NC(=O)c2cc3sccc3n2C)c1COc1ccc(OC[C@H]2CCNC2)cc1 [Example 49, N-[3-(Methoxymethyl)-2-[[4-[[(3S)-pyrrolidin-3-yl]methoxy]phenoxy]methyl]phenyl]-4-methyl-thieno[3,2-b]pyrrole-5-carboxamide hydrochloride]
> 5.00 | > 4.70 | > 5.00 | CCOCc1cccc(NC(=O)c2cc3sccc3n2C)c1COc1ccc(OC2CCNCC2)cc1 [Example 50, N-[3-(Ethoxymethyl)-2-[[4-(4-piperidyloxy)phenoxy]methyl]phenyl]-4-methyl-thieno[3,2-b]pyrrole-5-carboxamide hydrochloride]
> 5.00 | > 4.70 | > 5.00 | CC(C)OCc1cccc(NC(=O)c2cc3sccc3n2C)c1COc1ccc(OC2CCNCC2)cc1 [Example 51, N-[3-(Isopropoxymethyl)-2-[[4-(4-piperidyloxy)phenoxy]methyl]phenyl]-4-methyl-thieno[3,2-b]pyrrole-5-carboxamide]
– | – | > 5.00 | COCc1cccc(NC(=O)c2cc3sccc3n2C)c1COc1ccc(OC2CCCNCC2)cc1 (centres unmarked) [Example 44, N-[2-[[4-(azepan-4-yloxy)phenoxy]methyl]-3-(methoxymethyl)phenyl]-4-methyl-thieno[3,2-b]pyrrole-5-carboxamide hydrochloride]
– | – | > 5.00 | CCn1c(C(=O)Nc2ccccc2COc2cccc(OC3CCNCC3)c2)cc2ccsc21 [Example 65, 6-Ethyl-N-[2-[[3-(4-piperidyloxy)phenoxy]methyl]phenyl]thieno[2,3-b]pyrrole-5-carboxamide]
– | – | > 5.00 | Cn1c(C(=O)Nc2ccccc2COc2ccc(CNC(=N)N)cc2)cc2sccc21 [Example 60, N-[2-[[4-(Guanidinomethyl)phenoxy]methyl]phenyl]-4-methyl-thieno[3,2-b]pyrrole-5-carboxamide; trifluoroacetic acid]
– | – | > 5.00 | Cn1c(C(=O)Nc2cccc(COc3ccc(OCC4CCNCC4)cc3)c2)cc2sccc21 [Example 26, 4-methyl-N-[3-[[4-(4-piperidylmethoxy)phenoxy]methyl]phenyl]thieno[3,2-b]pyrrole-5-carboxamide]
– | – | > 5.00 | CCn1c(C(=O)Nc2cccc(COC)c2)cc2sccc21 [Example 45, 4-ethyl-N-[3-(methoxymethyl)phenyl]thieno[3,2-b]pyrrole-5-carboxamide]
